Data as given in ChEMBL document CHEMBL3727348, “3-(aryl or heteroaryl) methyleneindolin-2-one derivatives as inhibitors of cancer stem cell pathway kinases for the treatment of cancer” (2014).

Key:
ACHN [1] = test: Cytotoxic activity against human ACHN bulk cells incubated for 72 hrs by Cell-titer-Glo luminescence assay; type: functional, cell-based
FaDu [2] = test: Cytotoxic activity against human FADU cancer stem cells incubated for 72 hrs by Cell-titer-Glo luminescence assay; type: functional, cell-based
A549 [3] = test: Cytotoxic activity against human A549 bulk cells incubated for 72 hrs by Cell-titer-Glo luminescence assay; type: functional, cell-based; details: A549, 72 h
A549 [4] = test: Cytotoxic activity against human A549 cancer stem cells incubated for 72 hrs by Cell-titer-Glo luminescence assay; type: functional, cell-based; details: A549, 72 h
ACHN [5] = test: Cytotoxic activity against human ACHN cancer stem cells incubated for 72 hrs by Cell-titer-Glo luminescence assay; type: functional, cell-based
[6] = biological target: T1, Ribosomal protein S6 kinase (Homo sapiens) (UniProt P51812+Q9UBS0+O75676+Q15349+O75582+P23443+Q9UK32+Q15418); test: Inhibition of RPS6 kinase in human HeLa cells assessed as p-RPS6 Ser240/244 phosphorylation level at 5 uM incubated for 6 hrs by SDS-PAGE based chemiluminescence assay; type: cell-based; design: scale not given: the % may be the effect or the level left
[7] = biological target: T1, Ribosomal protein S6 kinase (Homo sapiens); test: Inhibition of RPS6 kinase in human HeLa cells assessed as p-RPS6 Ser235/236 phosphorylation level at 5 uM incubated for 6 hrs by SDS-PAGE based chemiluminescence assay; type: cell-based; design: scale not given: the % may be the effect or the level left
FaDu [8] = test: Cytotoxic activity against human FADU bulk cells incubated for 72 hrs by Cell-titer-Glo luminescence assay; type: functional, cell-based
[9] = biological target: AMP-activated protein kinase, AMPK (Homo sapiens) (UniProt P54646+O43741+P54619+Q9UGJ0+Q9Y478+Q13131+Q9UGI9); test: Inhibition of AMPK in human HeLa cells assessed as kinase phosphorylation level at 5 uM incubated for 6 hrs by SDS-PAGE based chemiluminescence assay; type: cell-based; design: scale not given: the % may be the effect or the level left
[10] = biological target: Serine/threonine-protein kinase RIO2 (Homo sapiens) (UniProt Q9BVS4); test: Inhibition of N-terminal GST-fused full length human recombinant RIOK2 expressed in baculovirus Sf21 cells assessed as reduction in kinase auto-phosphorylation at 10 uM in presence of ATP incubated for 1 hr by ELISA method
Serine/threonine-protein kinase RIO2 (Homo sapiens), sequence (Q9BVS4 whole entry, looked up, the tested form may be a part): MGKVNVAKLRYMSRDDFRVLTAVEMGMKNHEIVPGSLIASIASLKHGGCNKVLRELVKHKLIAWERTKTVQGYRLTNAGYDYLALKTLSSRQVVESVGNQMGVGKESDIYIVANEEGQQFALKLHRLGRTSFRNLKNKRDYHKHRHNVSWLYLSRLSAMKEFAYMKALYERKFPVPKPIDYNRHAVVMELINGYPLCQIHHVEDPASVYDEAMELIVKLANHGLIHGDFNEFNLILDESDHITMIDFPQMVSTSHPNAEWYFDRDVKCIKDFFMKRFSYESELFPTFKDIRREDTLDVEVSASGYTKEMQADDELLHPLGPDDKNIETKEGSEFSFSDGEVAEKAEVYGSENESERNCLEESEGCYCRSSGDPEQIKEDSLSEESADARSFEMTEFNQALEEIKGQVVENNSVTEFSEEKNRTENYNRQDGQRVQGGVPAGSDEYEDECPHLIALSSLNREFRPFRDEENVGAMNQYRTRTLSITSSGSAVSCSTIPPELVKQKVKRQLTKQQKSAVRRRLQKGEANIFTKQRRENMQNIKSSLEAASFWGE

SMILES	IC50 (ACHN [1]) [µM]	IC50 (FaDu [2]) [µM]	IC50 (A549 [3]) [µM]	IC50 (A549 [4]) [µM]	IC50 (ACHN [5]) [µM]	Activity [6] [%]	Activity [7] [%]	IC50 (FaDu [8]) [µM]	Activity [9] [%]	inhibition [10] [%]
CCN(CC)CCNC(=O)c1c(C)[nH]c(/C=C2\C(=O)Nc3c2cccc3-c2ccc3cc[nH]c3c2)c1C	3	2.06	2.91	3.9	1.86	44	29	2.77	39	
COc1ncc(-c2cccc3c2/C(=C/c2[nH]c(C)cc2C)C(=O)N3)cn1	28.1		21.1			75	77	35.3	145	
COc1ccc(-c2cccc3c2NC(=O)/C3=C\c2[nH]c(C)cc2C)cn1	28.3		24.4	43.4		59	63	28.4	91	
CCN(CC)CCNC(=O)c1c(C)[nH]c(/C=C2\C(=O)Nc3cc(-c4oc(-c5ccccc5)nc4C)ccc32)c1C	2.97	8.09	7.49		1.65	43	4	3.55	151	
Cc1[nH]c(/C=C2\C(=O)Nc3ccc(-c4ccc(-c5ccccc5)s4)cc32)c(C)c1C(=O)N1CCN(C)CC1		1.16						25.4		65
CCN(CC)CCNC(=O)c1c(C)[nH]c(/C=C2\C(=O)Nc3cc(-c4ccc(-c5ccccc5)s4)ccc32)c1C		30.5				56	5		150	
Cc1cc(C)c(/C=C2\C(=O)Nc3cccc(-c4cncnc4)c32)[nH]1	16.8		16.3			43	44	39.7	198	
Cc1[nH]c(/C=C2\C(=O)Nc3ccc(-c4nnc(-c5ccccc5)s4)cc32)c(C)c1C(=O)N1CCN(C)CC1		0.23	48.9					14.1		19
Cc1[nH]c(/C=C2\C(=O)Nc3cc(-c4csc(-c5ccccc5)n4)ccc32)c(C)c1C(=O)N1CCOCC1		41.9				44	4		118	
CCN(CC)CCNC(=O)c1c(C)[nH]c(/C=C2\C(=O)Nc3ccc(-c4ccc(-c5cccs5)s4)cc32)c1C		0.83				41	5	2.51	21	
Cc1cc(C)c(/C=C2\C(=O)Nc3c2cccc3-c2ccncc2)[nH]1			23.5			65	68		83	
CCN(CC)CCNC(=O)c1c(C)[nH]c(/C=C2\C(=O)Nc3ccc(-c4ccc(-c5ccccc5)s4)cc32)c1C	7.6	1.2						4.74		14
COc1ncccc1-c1cccc2c1/C(=C/c1[nH]c(C)cc1C)C(=O)N2						67	67	22.6	105	
Cc1cc(C)c(/C=C2\C(=O)Nc3cccc(-c4ccc5cc[nH]c5c4)c32)[nH]1	20.4		16.6	20.2	18.9	35	36	16.4	27	
Cc1cc(C)c(/C=C2\C(=O)Nc3c2cccc3-c2cncc3ccccc23)[nH]1	21		19.7			83	86	25.8	108	
COc1ncc(-c2cccc3c2NC(=O)/C3=C\c2[nH]c(C)cc2C)cn1	21.9		17.7	34.7	17.5	54	57	20.8	96	
CCN(CC)CCNC(=O)c1c(C)[nH]c(/C=C2\C(=O)Nc3ccc(-c4ccncc4)cc32)c1C	11.6	16.2	7.07	9.85	2.14			6.81		
Cc1[nH]c(/C=C2\C(=O)Nc3cccc(-c4ccc(-c5ccccc5)cc4)c32)c(C)c1C(=O)N1CCN(C)CC1	14.9	1.21	21.5	5.76		36	2	7.56	105	
CCN(CC)CCNC(=O)c1c(C)[nH]c(/C=C2\C(=O)Nc3ccc(-c4ccc(-c5ccccc5)nc4)cc32)c1C	7.41	3.96	2.3	6.45	0.63			4.92		

SMILES	IC50 (ACHN [1]) [µM]	IC50 (FaDu [2]) [µM]	IC50 (A549 [3]) [µM]	IC50 (A549 [4]) [µM]	IC50 (ACHN [5]) [µM]	Activity [6] [%]	Activity [7] [%]	IC50 (FaDu [8]) [µM]	Activity [9] [%]	inhibition [10] [%]
COC(=O)c1c(C)[nH]c(/C=C2\C(=O)Nc3ccc(-c4csc(C5CCNCC5)n4)cc32)c1C	0.52	0.22	0.7	2.48		83	70	0.69	79	
Cc1[nH]c(/C=C2\C(=O)Nc3ccc(-c4cnn(-c5ccccc5)c4)cc32)c(C)c1C(=O)NCc1nc2ccccc2[nH]1										79
CCN(CC)CCNC(=O)c1c(C)[nH]c(/C=C2\C(=O)Nc3ccc(-c4cnsc4)cc32)c1C	4.58	3.42	3.79	6.66	0.64			3.17		
CCN(CC)CCNC(=O)c1c(C)[nH]c(/C=C2\C(=O)Nc3ccc(-c4ccc(C#N)c(F)c4)cc32)c1C	13.3	3.48	14.5	12	1.71			14		
Cc1[nH]c(/C=C2\C(=O)Nc3ccc(-c4cnn(-c5ccccc5)c4)cc32)c(C)c1C(=O)NC1CNCC(c2ccccc2)C1 (stereo unspecified)										69
CCN(CC)CCNC(=O)c1c(C)[nH]c(/C=C2\C(=O)Nc3ccc(-c4cncnc4)cc32)c1C	3.66	10.1	7.33	18	0.55			4.55		
CCN(CC)CCNC(=O)c1c(C)[nH]c(/C=C2\C(=O)Nc3ccc(-c4ccc(C)cn4)cc32)c1C	2.92	0.22	6.51	3.38	1.16			3.05		
CCN(CC)CCNC(=O)c1c(C)[nH]c(/C=C2\C(=O)Nc3ccc(-c4csc(-n5ccnc5)n4)cc32)c1C	9.57	21.7	6.16	18.8	2.99			5.57		
Cc1cc(C)c(/C=C2\C(=O)Nc3ccc(-c4ccc(O)cc4C)cc32)[nH]1	14.9	14.4	12.5	36.8	21.1			14.7		
CCN(CC)CCNC(=O)CCc1c(C)[nH]c(/C=C2\C(=O)Nc3ccc(-c4csc(-c5ccccc5)n4)cc32)c1C	2.48	3.53	1.11	8.74	4.23			3.85		
Cc1cc(C)c(/C=C2\C(=O)Nc3c2cccc3-c2cncnc2)[nH]1	26.9		25.2			50	51	28.1	113	
Cc1nc(-c2ccccc2)oc1-c1ccc2c(c1)NC(=O)/C2=C\c1[nH]c(C)c(C(=O)N2CCN(C)CC2)c1C		1.6			0.5	21	2		103	
CCN(CC)CCNC(=O)c1c(C)[nH]c(/C=C2\C(=O)Nc3ccc(-c4nc(-c5ccccc5)cs4)cc32)c1C	1.64	0.27	4.74	4.28		64	21	1.18	12	
Cc1[nH]c(/C=C2\C(=O)Nc3cc(-c4ccc(-c5ccccc5)s4)ccc32)c(C)c1C(=O)N1CCN(C)CC1						68	36		108	
CCN(CC)CCNC(=O)c1c(C)[nH]c(/C=C2\C(=O)Nc3ccc(-c4ccc(OC)cn4)cc32)c1C	6.44	0.16	10.8	8.89	1.08			7.01		
Cc1cncc(-c2cccc3c2NC(=O)/C3=C\c2[nH]c(C)cc2C)c1	16		21.2	32	32	75	74	26.4	103	
CCN(CC)CCNC(=O)c1c(C)[nH]c(/C=C2\C(=O)Nc3ccc(-c4ccc5c(c4)CC(=O)N5)cc32)c1C	18.9	15.5	19.7	29.2	20.8			25.4		
CCN(CC)CCNC(=O)c1c(C)[nH]c(/C=C2\C(=O)Nc3ccc(-c4nccc5ccccc45)cc32)c1C	5.05	0.03	3.18	13.9	0.71			2.13		
CCN(CC)CCNC(=O)c1c(C)[nH]c(/C=C2\C(=O)Nc3ccc(-c4ncccc4OC)cc32)c1C	7.14	0.07	7.48	6.84	1.41			2.63		
